The results in this text go back to patent US20230017045A1, “PYRIDINE AND PYRIMIDINE CARBOXYLATE HERBICIDES AND METHODS OF USE THEREOF” (Dow AgroSciences LLC, priority 2017, published 2023).

Structures are written as SMILES. Read-outs that look alike come from different tables or passages of the source.

The assay has as its system test plant species. Put plainly: Post-emergent herbicidal activity test (greenhouse, foliar spray, visual growth reduction). The note with it: post-emergence, 336 h, 140 g ai/ha. It counts as in vivo. The method, boiled down:
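Plants grown in greenhouse (15 h photoperiod, 23-29° C day/22-28° C night) to first or second true leaf stage were sprayed overhead with compound in acetone/water/isopropanol/DMSO/crop oil/X-77 carrier at 187 L/ha. Injury was scored visually after 14 d on a 0-100% scale versus solvent-blank and untreated controls.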

Setting [1] is: ECHCG: barnyardgrass (Echinochloa crus-galli), 14 days after application, read-out: Visual Growth Reduction (%) 14 Days After Application, ECHCG.
[2] abbreviates: IPOHE: ivy-leaf morning glory (Ipomoea hederacea), 14 days after application, read-out: Visual Growth Reduction (%) 14 Days After Application, IPOHE.
Setting [3] is: KCHSC: kochia (Bassia scoparia), 14 days after application, read-out: Visual Growth Reduction (%) 14 Days After Application, KCHSC.
Setting [4] is: ORYSA: rice (Oryza sativa), 14 days after application, read-out: Visual Growth Reduction (%) 14 Days After Application, ORYSA.
[5] abbreviates: SETFA: giant foxtail (Setaria faberi), 14 days after application, read-out: Visual Growth Reduction (%) 14 Days After Application, SETFA.
[6] abbreviates: SORVU: grain sorghum (Sorghum vulgare), 14 days after application, read-out: Visual Growth Reduction (%) 14 Days After Application, SORVU.
The mark [7] stands for this setting: STEME: common chickweed (Stellaria media), 14 days after application, read-out: Visual Growth Reduction (%) 14 Days After Application, STEME.
Where [8] appears, read: TRZAS: wheat, spring (Triticum aestivum), 14 days after application, read-out: Visual Growth Reduction (%) 14 Days After Application, TRZAS.
[9] abbreviates: blackgrass (Alopecurus myosuroides), 14 Days After Application, read-out: Visual Growth Reduction (%) ALOMY.
Where [10] appears, read: canada thistle (Cirsium arvense), 14 Days After Application, read-out: Visual Growth Reduction (%) CIRAR.
[11] abbreviates: crabgrass (Digitaria sanguinalis), 14 Days After Application, read-out: Visual Growth Reduction (%) DIGSA.
The mark [12] stands for this setting: lambsquarters (Chenopodium album), 14 Days After Application, read-out: Visual Growth Reduction (%) CHEAL.
[13] abbreviates: redroot pigweed (Amaranthus retroflexus), 14 Days After Application, read-out: Visual Growth Reduction (%) AMARE.
[14] abbreviates: wild oat (Avena fatua), 14 Days After Application, read-out: Visual Growth Reduction (%) AVEFA.
Where [15] appears, read: yellow nutsedge (Cyperus esculentus), 14 Days After Application, read-out: Visual Growth Reduction (%) CYPES.

For the molecule `COC(=O)c1nc(-c2ccc([S+](C)[O-])cc2)c(F)cc1Cl` (stereo not drawn) [F263, Methyl 3-chloro-5-fluoro-6-(4-(methylsulfinyl)phenyl)picolinate], the pest or weed control at 140 g/ha fell in the range of 0 to 29% under setting [1]; 0 to 29% under setting [2]; 0 to 29% under setting [3]; 0 to 29% under setting [4]; 0 to 29% under setting [5]; 0 to 29% under setting [6]. Moreover, the pest or weed control at 140 g/ha is 0 to 29% under setting [7]; 0 to 29% under setting [8]; 0 to 29% under setting [9]; 0 to 29% under setting [10]; 0 to 29% under setting [11]; 0 to 29% under setting [12]. Moreover, the pest or weed control at 140 g/ha by setting is: under setting [13], 0 to 29%; under setting [14], 0 to 29%; under setting [15], 0 to 29%.

`COC(=O)c1nc(-c2cccc(F)c2OC)c(F)cc1Cl` [F264, Methyl 3-chloro-5-fluoro-6-(3-fluoro-2-methoxyphenyl) picolinate]: the pest or weed control at 140 g/ha is 0 to 29% under setting [1]; 95 to 100% under setting [2]; 0 to 29% under setting [3]; 0 to 29% under setting [4]; 0 to 29% under setting [5]; 0 to 29% under setting [6]. Further, the pest or weed control at 140 g/ha under setting [7] was in the range of 0 to 29%; the pest or weed control at 140 g/ha under setting [8] was in the range of 0 to 29%; the pest or weed control at 140 g/ha under setting [9] lay in the range of 0 to 29%; the pest or weed control at 140 g/ha under setting [10] is 30 to 44%; the pest or weed control at 140 g/ha under setting [11] was 0 to 29%; the pest or weed control at 140 g/ha under setting [12] was in the range of 75 to 84%. Also, the pest or weed control at 140 g/ha under setting [13] fell in the range of 0 to 29%, the pest or weed control at 140 g/ha under setting [14] was 0 to 29% and the pest or weed control at 140 g/ha under setting [15] lay within 0 to 29%.

Regarding `COC(=O)c1nc(-c2cc3ncsc3cc2F)c(F)cc1Cl` [F265, Methyl 3-chloro-5-fluoro-6-(6-fluorobenzo[d]thiazol-5-yl)picolinate], the pest or weed control at 140 g/ha under setting [1] is 0 to 29%; the pest or weed control at 140 g/ha under setting [2] lay in the range of 0 to 29%; the pest or weed control at 140 g/ha under setting [3] fell in the range of 0 to 29%; the pest or weed control at 140 g/ha under setting [4] was 0 to 29%; the pest or weed control at 140 g/ha under setting [5] was 0 to 29%; the pest or weed control at 140 g/ha under setting [6] was 0 to 29%. In addition, the pest or weed control at 140 g/ha lay within 0 to 29% under setting [7]; 0 to 29% under setting [8]; 0 to 29% under setting [9]; 0 to 29% under setting [10]; 0 to 29% under setting [11]; 75 to 84% under setting [12]. For the same molecule, the pest or weed control at 140 g/ha under setting [13] fell in the range of 0 to 29%, the pest or weed control at 140 g/ha under setting [14] fell in the range of 0 to 29% and the pest or weed control at 140 g/ha under setting [15] was 0 to 29%.

`COC(=O)c1nc(-c2ccc3ccsc3c2F)c(F)cc1Cl` [F266, Methyl 3-chloro-5-fluoro-6-(7-fluorobenzo[b]thiophen-6-yl)picolinate]: the pest or weed control at 140 g/ha reads like this: under setting [1], 0 to 29%; under setting [2], 0 to 29%; under setting [3], 0 to 29%; under setting [4], 0 to 29%; under setting [5], 0 to 29%; under setting [6], 0 to 29%. Moreover, the pest or weed control at 140 g/ha reads like this: under setting [7], 0 to 29%; under setting [8], 0 to 29%; under setting [9], 0 to 29%; under setting [10], 0 to 29%; under setting [11], 0 to 29%; under setting [12], 0 to 29%. In addition, the pest or weed control at 140 g/ha under setting [13] was 0 to 29%, the pest or weed control at 140 g/ha under setting [14] was in the range of 0 to 29% and the pest or weed control at 140 g/ha under setting [15] was 0 to 29%.

For the molecule `Cc1cc(C(F)(F)F)ccc1-c1nc(C(=O)O)c(Cl)cc1F` [F267, 3-Chloro-5-fluoro-6-(2-methyl-4-(trifluoromethyl)phenyl) picolinic acid], the pest or weed control at 140 g/ha under setting [1] is 75 to 84%; the pest or weed control at 140 g/ha under setting [2] is 95 to 100%; the pest or weed control at 140 g/ha under setting [3] lay within 60 to 74%; the pest or weed control at 140 g/ha under setting [4] is 0 to 29%; the pest or weed control at 140 g/ha under setting [5] is 85 to 94%; the pest or weed control at 140 g/ha under setting [6] is 95 to 100%. The pest or weed control at 140 g/ha fell in the range of 0 to 29% under setting [7]; 60 to 74% under setting [8]; 30 to 44% under setting [9]; 85 to 94% under setting [10]; 85 to 94% under setting [11]; 95 to 100% under setting [12]. The pest or weed control at 140 g/ha runs as follows: under setting [13], 95 to 100%; under setting [14], 45 to 59%; under setting [15], 0 to 29%.

Take `COC(=O)c1nc(-c2ccc(F)cc2F)ccc1Cl` [F268, Methyl 3-chloro-6-(2,4-difluorophenyl) picolinate]: the pest or weed control at 140 g/ha is, setting by setting: under setting [1], 0 to 29%; under setting [2], 0 to 29%; under setting [3], 0 to 29%; under setting [4], 0 to 29%; under setting [5], 0 to 29%; under setting [6], 60 to 74%. Moreover, the pest or weed control at 140 g/ha reads like this: under setting [7], 0 to 29%; under setting [8], 0 to 29%; under setting [9], 0 to 29%; under setting [10], 30 to 44%; under setting [11], 0 to 29%; under setting [12], 60 to 74%. Moreover, the pest or weed control at 140 g/ha by setting is: under setting [13], 0 to 29%; under setting [14], 0 to 29%; under setting [15], 0 to 29%.

In the case of `COC(=O)c1nc(-c2ccc(OC)nc2)ccc1Cl` [F269, Methyl 5-chloro-6′-methoxy-[2,3′-bipyridine]-6-carboxylate], the pest or weed control at 140 g/ha reads like this: under setting [1], 0 to 29%; under setting [2], 0 to 29%; under setting [3], 30 to 44%; under setting [4], 0 to 29%; under setting [5], 0 to 29%; under setting [6], 0 to 29%. The pest or weed control at 140 g/ha under setting [7] was in the range of 0 to 29%; the pest or weed control at 140 g/ha under setting [8] lay within 0 to 29%; the pest or weed control at 140 g/ha under setting [9] fell in the range of 0 to 29%; the pest or weed control at 140 g/ha under setting [10] was 30 to 44%; the pest or weed control at 140 g/ha under setting [11] lay within 0 to 29%; the pest or weed control at 140 g/ha under setting [12] lay in the range of 0 to 29%. Further, the pest or weed control at 140 g/ha is, setting by setting: under setting [13], 0 to 29%; under setting [14], 0 to 29%; under setting [15], 0 to 29%.

As for `COC(=O)c1nc(-c2ccc(Cl)cc2F)ccc1Cl` [F270, Methyl 3-chloro-6-(4-chloro-2-fluorophenyl) picolinate], the pest or weed control at 140 g/ha lay in the range of 0 to 29% under setting [1]; 95 to 100% under setting [2]; 75 to 84% under setting [3]; 0 to 29% under setting [4]; 0 to 29% under setting [5]; 85 to 94% under setting [6]. In addition, the pest or weed control at 140 g/ha reads like this: under setting [7], 30 to 44%; under setting [8], 45 to 59%; under setting [9], 0 to 29%; under setting [10], 75 to 84%; under setting [11], 85 to 94%; under setting [12], 85 to 94%. Moreover, the pest or weed control at 140 g/ha by setting is: under setting [13], 45 to 59%; under setting [14], 0 to 29%; under setting [15], 45 to 59%.

On to `COC(=O)c1nc(-c2cc(Cl)c(C)cc2F)ccc1Cl` [F271, Methyl 3-chloro-6-(5-chloro-2-fluoro-4-methylphenyl) picolinate], for which the pest or weed control at 140 g/ha is, setting by setting: under setting [1], 0 to 29%; under setting [2], 0 to 29%; under setting [3], 0 to 29%; under setting [4], 0 to 29%; under setting [5], 0 to 29%; under setting [6], 0 to 29%. The pest or weed control at 140 g/ha fell in the range of 0 to 29% under setting [7]; 0 to 29% under setting [8]; 0 to 29% under setting [9]; 0 to 29% under setting [10]; 0 to 29% under setting [11]; 60 to 74% under setting [12]. In addition, the pest or weed control at 140 g/ha runs as follows: under setting [13], 0 to 29%; under setting [14], 0 to 29%; under setting [15], 0 to 29%.
